Data on one compound can be found in ChEMBL document CHEMBL3526034 (Drug Metab Dispos, 2013).

The structures appear in SMILES notation. pIC50: −log10 of the molar value.

The target in one data set is Cytochrome P450 2D6 (Homo sapiens, UniProt P10635). In words: Inhibition of CYP2D6 in human liver microsomes using bufuralol as substrate preincubated for 20 mins with substrate prior to initiation of reaction with NADPH by HPLC analysis. The data set is classed as ADME. For orientation: Liver microsomes are a subcellular fraction often used to study metabolism.
Chain of Cytochrome P450 2D6 (P10635 whole entry): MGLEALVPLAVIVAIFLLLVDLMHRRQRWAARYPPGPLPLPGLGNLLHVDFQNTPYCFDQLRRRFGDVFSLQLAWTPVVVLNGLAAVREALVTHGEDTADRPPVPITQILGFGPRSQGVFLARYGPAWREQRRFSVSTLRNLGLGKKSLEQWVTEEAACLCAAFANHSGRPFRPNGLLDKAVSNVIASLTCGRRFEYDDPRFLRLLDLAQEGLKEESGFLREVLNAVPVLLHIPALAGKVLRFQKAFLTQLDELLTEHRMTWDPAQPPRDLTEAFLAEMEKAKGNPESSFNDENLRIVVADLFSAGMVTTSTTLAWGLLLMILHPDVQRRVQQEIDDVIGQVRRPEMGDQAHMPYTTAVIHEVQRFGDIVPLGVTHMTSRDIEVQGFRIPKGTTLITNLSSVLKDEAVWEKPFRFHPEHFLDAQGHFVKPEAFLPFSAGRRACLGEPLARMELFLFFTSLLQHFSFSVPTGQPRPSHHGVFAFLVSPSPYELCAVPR
The target in data set [1] is T1, UDP-glucuronosyltransferase 1A1 (Homo sapiens, UniProt P22309).
T1 sequence (P22309 whole entry): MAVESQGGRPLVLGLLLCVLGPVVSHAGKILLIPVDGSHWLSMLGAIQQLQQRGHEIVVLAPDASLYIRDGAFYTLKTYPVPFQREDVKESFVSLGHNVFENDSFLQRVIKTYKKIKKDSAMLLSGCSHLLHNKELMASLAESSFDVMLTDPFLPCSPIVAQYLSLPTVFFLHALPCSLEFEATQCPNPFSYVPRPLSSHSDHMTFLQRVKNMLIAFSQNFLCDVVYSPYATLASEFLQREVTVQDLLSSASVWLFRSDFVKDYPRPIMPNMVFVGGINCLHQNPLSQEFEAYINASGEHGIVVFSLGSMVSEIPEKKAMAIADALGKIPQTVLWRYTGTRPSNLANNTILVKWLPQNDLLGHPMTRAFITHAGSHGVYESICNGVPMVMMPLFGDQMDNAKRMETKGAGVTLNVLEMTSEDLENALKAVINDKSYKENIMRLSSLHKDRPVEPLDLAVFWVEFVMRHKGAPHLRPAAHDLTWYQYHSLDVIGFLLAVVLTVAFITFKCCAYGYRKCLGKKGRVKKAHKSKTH
In words: Drug metabolism in UDPGA-fortified human liver microsomes assessed as intrinsic clearance for UGT1A1-mediated DTG glucuronide M2 ((2S,3S,4S,5R,6S)-6-((4R,12aS)-9-(2,4-difluorobenzylcarbamoyl)-4-methyl-6,8-dioxo-3,4,6,8,12,12a-hexahydro-2H-[1,3]oxazino[3,2-d]pyrido[1,2-a]pyrazin-7-yloxy)-3,4,5-trihydroxytetrahydro-2H-pyran-2-carboxylic acid) formation after 120 mins measured per mg of protein by radio-HPLC analysis. The data set is classed as ADME.

The target of data set [2] is UDP-glucuronosyltransferase 2B4 (Homo sapiens, UniProt P06133). The experiment in a line: Drug metabolism assessed as UDPGA-fortified human recombinant UGT2B4-mediated DTG glucuronide metabolite ((2S,3S,4S,5R,6S)-6-((4R,12aS)-9-(2,4-difluorobenzylcarbamoyl)-4-methyl-6,8-dioxo-3,4,6,8,12,12a-hexahydro-2H-[1,3]oxazino[3,2-d]pyrido[1,2-a]pyrazin-7-yloxy)-3,4,5-trihydroxytetrahydro-2H-pyran-2-carboxylic acid) formation at 16 uM after 120 mins by radio-HPLC analysis. The data set is classed as ADME. The note with it: recombinant enzyme.
Chain of UDP-glucuronosyltransferase 2B4 (P06133 whole entry): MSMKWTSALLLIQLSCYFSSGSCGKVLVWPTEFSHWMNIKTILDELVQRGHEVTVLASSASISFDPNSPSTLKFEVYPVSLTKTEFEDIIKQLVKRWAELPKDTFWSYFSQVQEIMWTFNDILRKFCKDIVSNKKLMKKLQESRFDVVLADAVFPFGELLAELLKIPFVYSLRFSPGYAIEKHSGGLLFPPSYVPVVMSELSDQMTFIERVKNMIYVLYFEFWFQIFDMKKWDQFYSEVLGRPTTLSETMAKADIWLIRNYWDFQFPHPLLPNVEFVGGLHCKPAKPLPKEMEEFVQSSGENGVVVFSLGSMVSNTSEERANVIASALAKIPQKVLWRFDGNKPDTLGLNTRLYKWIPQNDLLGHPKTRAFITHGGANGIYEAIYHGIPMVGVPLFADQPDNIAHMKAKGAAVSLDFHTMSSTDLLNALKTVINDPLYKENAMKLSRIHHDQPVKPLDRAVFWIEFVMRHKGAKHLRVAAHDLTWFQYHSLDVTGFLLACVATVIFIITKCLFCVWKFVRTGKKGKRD

The target of a further data set is Cytochrome P450 3A4 (Homo sapiens, UniProt P08684). In words: Drug metabolism in supersomes expressing human recombinant CYP3A4 assessed as for NADPH-fortified enzyme-mediated metabolite M1 ((4R,12aS)-7-hydroxy-4-methyl-6,8-dioxo-3,4,6,8,12,12a-hexahydro-2H-[1,3]oxazino[3,2-d]pyrido[1,2-a]pyrazine-9-carboxamide) formation at 5 uM after 120 mins by radio-HPLC analysis. The data set is classed as ADME.
Chain of Cytochrome P450 3A4 (P08684 whole entry): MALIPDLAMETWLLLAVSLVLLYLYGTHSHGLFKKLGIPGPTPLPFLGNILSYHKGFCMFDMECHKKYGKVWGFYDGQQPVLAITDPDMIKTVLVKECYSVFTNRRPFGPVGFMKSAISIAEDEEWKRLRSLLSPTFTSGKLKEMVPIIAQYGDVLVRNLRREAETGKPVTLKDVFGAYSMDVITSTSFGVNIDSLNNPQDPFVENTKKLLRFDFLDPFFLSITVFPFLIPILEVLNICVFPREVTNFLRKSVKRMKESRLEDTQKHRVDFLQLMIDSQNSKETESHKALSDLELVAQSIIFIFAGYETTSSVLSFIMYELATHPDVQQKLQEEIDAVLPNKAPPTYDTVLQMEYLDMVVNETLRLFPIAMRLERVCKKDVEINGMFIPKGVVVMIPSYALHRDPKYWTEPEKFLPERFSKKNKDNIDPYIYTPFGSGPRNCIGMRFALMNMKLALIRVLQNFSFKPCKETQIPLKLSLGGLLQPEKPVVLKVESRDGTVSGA

Another data set concerns the target MDR1 (P-gp, ABCB1) (Homo sapiens, UniProt P08183). In words: Activity at human MDR1 expressed in MDCK2 cells assessed as basolateral to apical mass balance at 3 uM by liquid scintillation counting analysis in presence of 3 uM P-gp and BCRP inhibitor GF120918. Type of data set: ADME, cell-based, MDCK-II. As to conditions: with GF120918 (P-gp and BCRP inhibitor), read-out: Activity.

The nature of data set [3]: Protein binding in plasma (unknown origin). The note with it: read-out: PPB. Type of data set: ADME, cell-free.
In a further data set the target is Cytochrome P450 2A6 (Homo sapiens, UniProt P11509). The experiment in a line: Inhibition of CYP2A6 in human liver microsomes using coumarin as substrate preincubated for 20 mins with substrate prior to initiation of reaction with NADPH by HPLC analysis. Type of data set: ADME.
Chain of Cytochrome P450 2A6 (P11509 whole entry): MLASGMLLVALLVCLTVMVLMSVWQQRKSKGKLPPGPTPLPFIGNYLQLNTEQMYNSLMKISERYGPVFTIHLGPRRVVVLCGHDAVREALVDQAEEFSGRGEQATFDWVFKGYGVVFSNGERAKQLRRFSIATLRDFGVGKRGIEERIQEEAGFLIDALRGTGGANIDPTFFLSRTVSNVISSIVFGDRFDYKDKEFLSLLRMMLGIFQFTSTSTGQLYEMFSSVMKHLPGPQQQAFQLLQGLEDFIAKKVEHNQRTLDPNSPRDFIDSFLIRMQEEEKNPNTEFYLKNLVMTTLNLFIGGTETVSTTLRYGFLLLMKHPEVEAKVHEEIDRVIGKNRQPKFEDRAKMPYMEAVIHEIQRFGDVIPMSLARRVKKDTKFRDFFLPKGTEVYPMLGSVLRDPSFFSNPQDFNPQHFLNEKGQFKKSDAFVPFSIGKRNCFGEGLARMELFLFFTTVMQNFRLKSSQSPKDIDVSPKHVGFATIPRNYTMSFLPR
The next data set has as its system Hepatocyte. In words: Induction of CYP3A4 mRNA expression in human hepatocytes at 1 to 40 uM after 48 hrs by real time PCR analysis. The data set is classed as ADME, cell-based. Background: Quantitative PCR measures a nucleic acid by following its amplification.
The nature of data set [4]: Drug excretion in human feces at 20 mg, po. Type of data set: ADME, tissue-based. The note with it: faeces, read-out: Drug excretion.
For data set [5], the target named is T2, Broad substrate specificity ATP-binding cassette transporter ABCG2 (Homo sapiens, UniProt Q9UNQ0).
T2 sequence (Q9UNQ0 whole entry): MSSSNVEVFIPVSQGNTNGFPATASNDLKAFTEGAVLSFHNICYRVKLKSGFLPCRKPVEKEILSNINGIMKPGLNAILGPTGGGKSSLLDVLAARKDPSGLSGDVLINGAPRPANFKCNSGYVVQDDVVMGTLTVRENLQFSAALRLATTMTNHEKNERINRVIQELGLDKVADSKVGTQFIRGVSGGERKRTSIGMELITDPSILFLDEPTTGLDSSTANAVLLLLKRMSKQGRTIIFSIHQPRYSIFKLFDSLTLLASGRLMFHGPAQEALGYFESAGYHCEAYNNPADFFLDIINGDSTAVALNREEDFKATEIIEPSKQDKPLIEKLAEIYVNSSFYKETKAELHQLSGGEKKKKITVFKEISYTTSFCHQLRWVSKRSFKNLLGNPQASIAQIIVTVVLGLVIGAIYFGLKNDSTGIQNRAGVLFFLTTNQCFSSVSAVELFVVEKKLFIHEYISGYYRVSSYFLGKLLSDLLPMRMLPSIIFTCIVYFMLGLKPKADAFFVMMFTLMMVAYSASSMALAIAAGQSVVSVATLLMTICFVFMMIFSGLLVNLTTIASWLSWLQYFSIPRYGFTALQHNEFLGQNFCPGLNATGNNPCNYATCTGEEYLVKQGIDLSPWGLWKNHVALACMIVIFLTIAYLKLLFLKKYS
The experiment in a line: Inhibition of BCRP (unknown origin) expressed in MDCK2 cells assessed as basolateral to apical transport of [14C]cimetidine at 30 uM after 90 mins by liquid scintillation counting analysis. Type of data set: ADME, cell-based. The note with it: mdck-ii, 1.5 h.

For the next data set, the target named is CYP3A4 (Homo sapiens, UniProt P08684). In words: Inhibition of CYP3A4 in human liver microsomes using nifedipine as substrate at 100 uM preincubated for 20 mins with substrate prior to initiation of reaction with NADPH by HPLC analysis. The data set is classed as ADME. As to conditions: probe nifedipine.
Chain of CYP3A4 (P08684 whole entry): as the sequence (P08684 whole entry) above
In data set [6] the target is Solute carrier family 22 member 1 (Homo sapiens, UniProt O15245). In words: Inhibition of human OCT1 expressed in HEK293 cells using [14C]metformin as substrate at 10 uM after 10 mins by liquid scintillation counting analysis. Type of data set: ADME, cell-based. The note with it: hek293, 10 min.
Chain of Solute carrier family 22 member 1 (O15245 whole entry): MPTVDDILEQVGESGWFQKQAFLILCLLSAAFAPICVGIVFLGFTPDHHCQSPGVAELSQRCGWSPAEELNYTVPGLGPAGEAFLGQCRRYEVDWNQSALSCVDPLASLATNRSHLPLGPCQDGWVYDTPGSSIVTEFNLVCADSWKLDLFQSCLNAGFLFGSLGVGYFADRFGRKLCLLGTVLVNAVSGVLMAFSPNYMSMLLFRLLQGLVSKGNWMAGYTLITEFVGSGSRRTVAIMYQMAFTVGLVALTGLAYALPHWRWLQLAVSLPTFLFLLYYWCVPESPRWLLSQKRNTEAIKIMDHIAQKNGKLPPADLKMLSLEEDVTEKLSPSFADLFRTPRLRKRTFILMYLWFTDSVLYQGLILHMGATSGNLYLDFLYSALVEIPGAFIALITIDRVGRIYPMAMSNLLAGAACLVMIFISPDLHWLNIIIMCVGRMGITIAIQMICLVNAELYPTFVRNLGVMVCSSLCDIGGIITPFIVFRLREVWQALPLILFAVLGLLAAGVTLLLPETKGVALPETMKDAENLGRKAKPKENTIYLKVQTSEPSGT
Data set [7] deals with UDP-glucuronosyltransferase 1A3 (Homo sapiens, UniProt P35503). The experiment in a line: Drug metabolism assessed as UDPGA-fortified human recombinant UGT1A3-mediated DTG glucuronide metabolite ((2S,3S,4S,5R,6S)-6-((4R,12aS)-9-(2,4-difluorobenzylcarbamoyl)-4-methyl-6,8-dioxo-3,4,6,8,12,12a-hexahydro-2H-[1,3]oxazino[3,2-d]pyrido[1,2-a]pyrazin-7-yloxy)-3,4,5-trihydroxytetrahydro-2H-pyran-2-carboxylic acid) formation at 16 uM after 120 mins by radio-HPLC analysis. As to conditions: recombinant enzyme. Type of data set: ADME.
Chain of UDP-glucuronosyltransferase 1A3 (P35503 whole entry): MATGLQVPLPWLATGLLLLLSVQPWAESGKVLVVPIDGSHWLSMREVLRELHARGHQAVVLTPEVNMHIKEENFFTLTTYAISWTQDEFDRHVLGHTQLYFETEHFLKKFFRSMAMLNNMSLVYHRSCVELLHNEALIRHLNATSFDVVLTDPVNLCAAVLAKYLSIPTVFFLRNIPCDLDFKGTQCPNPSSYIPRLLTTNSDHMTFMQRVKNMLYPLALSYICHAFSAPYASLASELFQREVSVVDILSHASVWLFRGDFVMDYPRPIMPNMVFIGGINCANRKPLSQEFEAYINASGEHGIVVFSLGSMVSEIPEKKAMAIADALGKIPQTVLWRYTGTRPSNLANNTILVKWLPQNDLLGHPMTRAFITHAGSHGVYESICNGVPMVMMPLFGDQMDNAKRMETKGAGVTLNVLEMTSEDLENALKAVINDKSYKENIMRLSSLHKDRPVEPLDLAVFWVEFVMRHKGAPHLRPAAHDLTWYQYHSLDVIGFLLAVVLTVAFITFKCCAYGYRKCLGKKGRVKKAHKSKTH

Chain of MDR1 (P-gp, ABCB1) (P08183 whole entry): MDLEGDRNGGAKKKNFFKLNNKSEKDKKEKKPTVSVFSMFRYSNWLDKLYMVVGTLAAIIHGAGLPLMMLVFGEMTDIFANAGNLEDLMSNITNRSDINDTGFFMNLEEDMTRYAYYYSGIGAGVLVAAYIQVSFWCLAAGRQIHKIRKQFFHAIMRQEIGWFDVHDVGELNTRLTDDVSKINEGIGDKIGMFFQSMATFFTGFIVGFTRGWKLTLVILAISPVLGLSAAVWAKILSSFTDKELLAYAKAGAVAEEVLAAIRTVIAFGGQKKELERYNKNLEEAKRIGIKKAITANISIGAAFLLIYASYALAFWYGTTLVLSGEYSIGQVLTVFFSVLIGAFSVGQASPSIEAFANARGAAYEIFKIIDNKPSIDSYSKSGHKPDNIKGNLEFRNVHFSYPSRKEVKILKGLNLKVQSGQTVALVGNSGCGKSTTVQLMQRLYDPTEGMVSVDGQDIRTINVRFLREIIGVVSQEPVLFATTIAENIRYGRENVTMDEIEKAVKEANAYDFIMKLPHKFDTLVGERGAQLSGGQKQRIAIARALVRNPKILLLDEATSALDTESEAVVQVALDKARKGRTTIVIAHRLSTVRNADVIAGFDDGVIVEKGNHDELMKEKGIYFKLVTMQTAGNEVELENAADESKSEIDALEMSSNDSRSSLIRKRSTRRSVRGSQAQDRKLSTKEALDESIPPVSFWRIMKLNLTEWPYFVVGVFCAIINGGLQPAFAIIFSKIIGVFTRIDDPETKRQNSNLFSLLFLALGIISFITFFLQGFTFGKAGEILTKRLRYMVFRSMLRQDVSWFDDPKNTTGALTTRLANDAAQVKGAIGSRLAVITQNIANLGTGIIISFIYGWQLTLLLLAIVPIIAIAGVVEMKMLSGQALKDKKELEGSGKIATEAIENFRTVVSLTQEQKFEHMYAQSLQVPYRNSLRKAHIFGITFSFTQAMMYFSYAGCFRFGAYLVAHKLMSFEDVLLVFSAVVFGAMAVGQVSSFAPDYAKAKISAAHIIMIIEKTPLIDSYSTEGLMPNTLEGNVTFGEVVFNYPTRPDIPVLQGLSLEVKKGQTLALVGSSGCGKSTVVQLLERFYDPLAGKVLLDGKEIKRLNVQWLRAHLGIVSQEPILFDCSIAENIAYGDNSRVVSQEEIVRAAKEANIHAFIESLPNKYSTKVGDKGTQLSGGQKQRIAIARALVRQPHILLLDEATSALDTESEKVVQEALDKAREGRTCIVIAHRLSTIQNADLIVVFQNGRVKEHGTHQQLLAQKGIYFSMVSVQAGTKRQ

In the case of `C[C@@H]1CCO[C@H]2Cn3cc(C(=O)NCc4ccc(F)cc4F)c(=O)c(O)c3C(=O)N12` [DOLUTEGRAVIR], the pIC50 against Cytochrome P450 2D6 and at Cytochrome P450 2A6 was under 4.00 throughout. The CLH in [1] worked out at 2.7 µL/min/g. In addition, the Drug metabolism result in data set [2] is “metabolite_not_detected”; at Cytochrome P450 3A4 it was “metabolite_detected”; in data set [7] it was “metabolite_detected”. The recovery at 3 µM on MDR1 (P-gp, ABCB1) worked out at 75%. Moreover, in data set [3], the fraction unbound was under 0.01. For the same compound, the Activity result in the data set on Hepatocyte is listed as “Toxic”. Besides, in data set [4], the dose excreted came to 3.1%. In addition, the results for the “inhibition (INH)” value in [5] and in data set [6] were 43% and 22%, respectively. The compound also yielded an inhibition at 100 µM at CYP3A4 of 20%.

The pIC50 is the negative decadic logarithm of the IC50, by convention in mol/L. A lower pIC50 goes with a high IC50. By inhibition is commonly meant the relative decrease from the control value, in per cent. High values mean strong suppression, low ones little suppression.
